Measurements published in patent US8404647B2, “Peptidylarginine deiminase (PAD) inhibitors” (Chiralix B.V., priority 2008, dated 2013).
Square brackets hold non-standard residues; d marks the D form. Peptide text beside a SMILES is read from it. * marks the point of attachment. CA = chloroamidine (on ornithine side chain, O(CA) = ornithine chloroamidine), N=C(CCl)*; Orn(fluoroacetimidoyl) = N=C(CF)NCCC[C@H](N)C(=O)O; Orn = NCCC[C@H](N)C(=O)O

Columns and labels:
[1] = target: transglutaminase (TG) (UniProt P08587); experiment: biochemical
transglutaminase (TG), sequence (P08587 whole entry): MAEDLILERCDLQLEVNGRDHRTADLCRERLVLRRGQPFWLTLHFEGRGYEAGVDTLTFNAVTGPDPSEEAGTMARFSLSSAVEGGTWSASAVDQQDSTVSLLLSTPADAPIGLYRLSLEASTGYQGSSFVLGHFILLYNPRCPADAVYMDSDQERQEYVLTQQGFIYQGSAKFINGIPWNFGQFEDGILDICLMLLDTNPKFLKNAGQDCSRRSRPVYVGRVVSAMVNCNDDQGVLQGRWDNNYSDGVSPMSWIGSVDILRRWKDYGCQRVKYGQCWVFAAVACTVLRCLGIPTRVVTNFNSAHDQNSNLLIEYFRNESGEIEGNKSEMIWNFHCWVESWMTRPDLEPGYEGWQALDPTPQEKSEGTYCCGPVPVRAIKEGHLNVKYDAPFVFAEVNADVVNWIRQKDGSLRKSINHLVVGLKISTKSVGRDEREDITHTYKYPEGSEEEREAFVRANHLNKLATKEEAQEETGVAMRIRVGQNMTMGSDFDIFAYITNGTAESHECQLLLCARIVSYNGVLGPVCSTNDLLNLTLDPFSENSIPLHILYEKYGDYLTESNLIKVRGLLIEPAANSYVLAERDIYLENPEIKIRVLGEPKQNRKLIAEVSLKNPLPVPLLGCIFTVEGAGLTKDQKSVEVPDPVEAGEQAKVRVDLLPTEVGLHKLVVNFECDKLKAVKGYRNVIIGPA
Protocol: (§1) The activities of CK and TG (both purchased from Sigma-Aldrich (Schnelldorf, Germany) were assayed with the help of the commercial kits CK NAC activated liquiUV test form
(§2) Human GmbH (Wiesbaden, Germany) and the Enzymatic Assay of [sequence] from Sigma-Aldrich (Schnelldorf, Germany) according to the manufacturers' instructions.

[2] = target: creatine kinase (CK); experiment: Creatine kinase activity (CK NAC activated liquiUV test); assay type: biochemical, mammalian; settings: enzyme treated with inhibitor 10 min at room temperature
Protocol: as §1, §2

[3] = target: hDDAH-1 (Homo sapiens, UniProt O94760); experiment: biochemical
hDDAH-1, sequence (O94760 whole entry): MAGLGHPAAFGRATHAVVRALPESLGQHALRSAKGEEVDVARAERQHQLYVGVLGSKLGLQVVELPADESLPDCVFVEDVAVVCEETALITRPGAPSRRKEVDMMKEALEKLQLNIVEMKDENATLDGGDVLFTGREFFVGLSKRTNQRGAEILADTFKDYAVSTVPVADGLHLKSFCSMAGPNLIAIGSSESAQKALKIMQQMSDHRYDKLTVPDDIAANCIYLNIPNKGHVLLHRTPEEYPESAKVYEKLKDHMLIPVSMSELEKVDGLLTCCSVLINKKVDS
Protocol: The most commonly used procedure to determine hDDAH-1 activity relies on diacetyl monoxime (DAMO) derivatization of the ureido group in L-citrulline to form a colored product. This assay has been optimized for monitoring DDAH activity in a 96-well format {Knipp et al., 2000}.
Purified recombinant His6-tagged hDDAH-1 was incubated with its substrate ADMA in assay buffer (100 mM Na2HPO4, pH 8.0) at 37° C. for 1 h. The reaction was quenched by the addition of 0.3 M trifluoroacetic acid. The L-citrulline formed was modified with 1.5 mg/ml DAMO (diacetyl monoxime) and 1.0 mg/ml antipyrine in the presence of 15% sulphuric acid, 12% phosphoric acid and 0.16 mg/ml FeCla3 for 10 minutes at 100° C. After cooling down to room temperature, the absorbance was measured at 450 nm.

[4] = target: papain (Carica papaya, UniProt P00784); experiment: biochemical
papain, sequence (P00784 134-345): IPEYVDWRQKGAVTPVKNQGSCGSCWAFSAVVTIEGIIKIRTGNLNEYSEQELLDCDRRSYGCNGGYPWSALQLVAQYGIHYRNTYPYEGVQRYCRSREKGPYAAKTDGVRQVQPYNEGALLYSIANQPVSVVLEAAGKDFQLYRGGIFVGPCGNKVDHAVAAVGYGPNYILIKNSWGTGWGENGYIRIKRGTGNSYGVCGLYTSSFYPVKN
Protocol: The activity of papain was assessed using a similar experimental setting, based on its cleavage of pGlu-Phe-Leu-pNA in reaction buffer (25 mM Tris-HCL, pH 7.6; 150 mM NaCl).

[5] = target: T1, PAD2 (Homo sapiens, UniProt Q9Y2J8); experiment: Colorimetric assay (BAEE, DAMO/antipyrine), PAD2; assay type: biochemical; settings: Table 22, colorimetric assay of Example 6; read-out: IC50 values (μM) hPAD2
T1 sequence (Q9Y2J8 whole entry): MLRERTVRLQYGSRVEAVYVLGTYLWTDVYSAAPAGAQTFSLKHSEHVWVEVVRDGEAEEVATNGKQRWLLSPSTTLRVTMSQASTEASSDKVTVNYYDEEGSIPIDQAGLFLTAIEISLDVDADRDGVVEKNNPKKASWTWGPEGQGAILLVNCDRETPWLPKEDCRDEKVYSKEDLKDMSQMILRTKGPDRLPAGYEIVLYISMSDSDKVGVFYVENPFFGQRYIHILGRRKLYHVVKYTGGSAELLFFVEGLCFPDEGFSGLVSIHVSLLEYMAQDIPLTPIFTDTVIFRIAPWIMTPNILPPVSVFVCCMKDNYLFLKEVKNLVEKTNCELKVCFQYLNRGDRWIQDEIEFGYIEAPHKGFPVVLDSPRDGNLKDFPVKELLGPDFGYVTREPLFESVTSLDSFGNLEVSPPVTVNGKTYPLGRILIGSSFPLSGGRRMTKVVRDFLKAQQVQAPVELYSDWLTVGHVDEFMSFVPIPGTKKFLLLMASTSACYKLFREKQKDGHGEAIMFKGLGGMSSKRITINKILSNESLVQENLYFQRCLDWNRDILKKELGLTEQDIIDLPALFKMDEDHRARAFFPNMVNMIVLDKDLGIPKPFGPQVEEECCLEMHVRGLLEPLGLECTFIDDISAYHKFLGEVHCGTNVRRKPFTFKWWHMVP
Protocol: One of the assays that was used to investigate the inhibition of a PAD by the inhibitors, is the colorimetric assay that has been described previously {Sugawara et al. 1998}. In this assay benzoylarginine ethyl ester (BAEE) is incubated with a purified recombinant PAD enzyme as indicated in a buffer containing 50 mM Tris-HCl, pH 7.6, 10 mM CaCl2, 2 mM dithiothreitol for 3 hours at 37° C. […] After cooling down to room temperature, the absorbance is measured at 450 nm.
To test the efficacy of the inhibitors (see Table 21) in this assay, a recombinant PAD enzyme as indicated was pre-incubated with various concentrations of inhibitory compounds for 15 minutes at 37° C.
The capacity of various compounds to inhibit the human PAD2 (0.12 μM) and PAD4 (0.2 μM) in this colorimetric assay is illustrated in FIG. 4.

[6] = target: T2, caspase-3 (Homo sapiens, UniProt P42574); experiment: Caspase-3 activity assay (Ac-DEVDpNA cleavage); assay type: biochemical, mammalian; settings: enzyme treated with inhibitor 10 min at room temperature
T2 sequence (P42574 29-175 limits assumed): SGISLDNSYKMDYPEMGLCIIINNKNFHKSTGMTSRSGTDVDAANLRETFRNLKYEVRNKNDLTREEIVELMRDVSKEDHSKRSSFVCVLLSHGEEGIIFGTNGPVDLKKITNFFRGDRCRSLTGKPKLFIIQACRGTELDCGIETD
T2 sequence (P42574 176-277 limits assumed): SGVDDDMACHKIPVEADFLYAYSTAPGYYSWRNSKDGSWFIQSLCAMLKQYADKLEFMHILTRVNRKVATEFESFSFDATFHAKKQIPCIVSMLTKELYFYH
Protocol: Upon incubation of purified recombinant caspase-3 with its commercially available substrate: acetyl-Asp-Glu-Val-Asp-p-nitroanilide (Ac-DEVDpNA) SEQ ID NO: 145 in CFS buffer (220 mM mannitol, 68 mM sucrose, 2mM NaCl, 2.5 mM KH2PO4, 10 mM HEPES, pH 7.4 plus a cocktail of protease inhibitors), the substrate is cleaved, pNA is released and its absorbance at 405 nm can be monitored.

[7] = target: T1, PAD2; experiment: ABAP antibody based PAD enzyme activity assay, PAD2; assay type: biochemical; settings: Table 19, first 8 pentapeptide inhibitors
Protocol: These 8 pentapeptides inhibitors are represented by SEQ ID NO: 12-19. (O(FA) stands for ornithine fluoroamidine, O(CA) stands for ornithine chloroamidine). The IC50's for human PAD2 and 4 as well as for mouse PAD2 and 4 were determined in an assay developed by Zendman and others {Zendman et al. 2007}. Of this series the inhibitor T-D-O(FA)-G-S(CXP5-101) (SEQ ID NO: 12) was the best PAD2 and PAD4 inhibitor. Subsequently, several modifications were brought to this lead compound.
To determine inhibition of PAD2 and PAD4 activity, the commercially available Antibody based PAD enzyme activity assay from ModiQuest Research (cat no: MQ17.101) has been used according to manufacturers specifications.
PAD enzymes (amounts that give maximum deimination) were mixed with PAD inhibitors at the following concentrations (4.9, 9.8, 19.5, 39, 78.1, 156, 313, 625, 1250, 2500 and 5000 μM) and pre-incubated for 30 minutes at 37° C. After pre-incubation, mixtures of PAD enzymes and inhibitors were added to the wells for an additional incubation of 75 minutes. After thoroughly washing the 96-well plates with PBS, the conversion of the arginines into citrullines of the coating was measured with the use of a propriety anti-citrulline-antibody, followed by a secondary HRP-labelled antibody recognizing the anti-citrulline antibody. Incubation with both antibodies was performed for 1 h at 37° C. […]

[8] = tested on: collagen antibody induced arthritis (CAIA); experiment: Collagen antibody induced arthritis (CAIA) mouse model; assay type: in vivo; settings: 0.5 mg daily i.v. day 3 to 11 except day 9, male DBA/J1 mice, FIG. 6
Protocol: FIG. 6. The collagen antibody induced arthritis (CAIA) model (MQR; 18.101) was used to test the therapeutic effect of the PAD-inhibitor CXP5.7-011 (SEQ ID NO:143). At day 0 mice were injected i.p. with 2.8 mg anti-collagen antibodies. LPS (25 μg/mouse) was administered on day 3 via i.p. injection. The inhibitor (0.5 mg CXP5.7-011 in 200 μl PBS containing 20 mM sodium phosphate), or 200 μl PBS containing 20 mM sodium phosphate as the placebo, was administered daily from day 3 until day 11 (with the exception of day 9). Animals were scored daily until day 14 for degree of inflammation. Mean arthritis score per experimental group (5 mice) is indicated at each time point.
One of the peptide based human PAD 2 and PAD 4 inhibitors was tested in the commercially available collagen antibody induced arthritis (CAIA) mouse model (Modiquest research B.V., product number 18.101). Experimental procedures were performed according to manufacturers specifications to induce arthritis in mice (World Wide Web (www) modiquestresearch.n1/shop/files/18.101-50MG%20 —2007.08.22.pdf) In short, on day 0 male DBA/J1 mice (5mice/group) of the age of 8 weeks have been injected i.p. with a mix of 8 anti-collagen antibodies (2.8 mg/mouse). […]
Animals where scored daily for degree of inflammation in their paws. […]

Molecule: CC[C@H](C)[C@H](NC(=O)[C@H](Cc1ccccc1)NC(=O)[C@H](CC(=O)O)NC(=O)[C@H](CCCNC(=N)CF)NC(=O)[C@H](CC(=O)O)NC(=O)[C@H](Cc1ccccc1)NC(=O)[C@H](CCCCN)NC(C)=O)C(N)=O [Peptide 0743-58FA, Ac-K-F-D-O(FA)-D-F-I-amide] (Ac-KFD[Orn(fluoroacetimidoyl)]DFI-NH2)
- IC50 [1]: 1000 µM
- IC50 [2]: 800 µM
- IC50 [3]: > 2000 µM
- IC50 [4]: > 2000 µM
- IC50 [5]: 35 µM
- IC50 [6]: 920 µM

Molecule: N=C(CF)NCCC[C@H](NC(=O)[C@H](CC(=O)O)NC(=O)CN)C(=O)N[C@@H](CO)C(=O)NCC(=O)O [SEQ ID NO: 13, G-D-O(FA)-S-G] (H-GD[Orn(fluoroacetimidoyl)]SG-OH)
- IC50 [7]: 17 µM

Molecule: Ac-Y-D-O(CA)-G-S-amide (Ac-YD[Orn](CA)GS-NH2; SMILES CC(=O)N[C@@H](Cc1ccc(O)cc1)C(=O)N[C@@H](CC(=O)O)C(=O)N[C@@H](CCCNC(=N)CCl)C(=O)NCC(=O)N[C@@H](CO)C(N)=O) [CXP5.7-011]
- degree of inflammation (mean arthritis score) [8]: clearly demonstrates the inhibitory potential of the inhibitor in this model
